According to ChEMBL document CHEMBL1201862, “PubChem BioAssay data set” (2004):
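Where inhibition never reached the appropriate level, the endpoint shown equals the highest concentration tested. Otherwise, values were interpolated linearly from a five-concentration, 48-hour dose response in 96-well plates. GI50: concentration for 50% inhibition of growth.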 The source made the active and inactive calls. No stated cut-off is given here; in the data, active = GI50 up to about 1.1 µM and inactive = higher.

Assays:
Assay in all cases: growth of human tumour cells (NCI), 48 h
786-0 = test system: 786-0
A498 = test system: A498
BT-549 = test system: BT-549
DU-145 = test system: DU-145
HL-60 = test system: HL-60
HOP-92 = test system: HOP-92
IGROV-1 = test system: IGROV-1
K562 = test system: K562
KM12 = test system: KM12
LOX IMVI = test system: LOX IMVI
M14 = test system: M14
MDA-MB-231 = test system: MDA-MB-231
MOLT-4 = test system: MOLT-4
Malme-3M = test system: Malme-3M
NCI-H23 = test system: NCI-H23
PC-3 = test system: PC-3
SW-620 = test system: SW-620
UO-31 = test system: UO-31
OVCAR-3 = test system: OVCAR-3
NCI-H226 = test system: NCI-H226

SMILES | GI50 (786-0) | GI50 (A498) | GI50 (BT-549) | GI50 (DU-145) | GI50 (HL-60) | GI50 (HOP-92) | GI50 (IGROV-1) | GI50 (K562) | GI50 (KM12) | GI50 (LOX IMVI) | GI50 (M14) | GI50 (MDA-MB-231) | GI50 (MOLT-4) | GI50 (Malme-3M) | GI50 (NCI-H23) | GI50 (PC-3) | GI50 (SW-620) | GI50 (UO-31) | GI50 (OVCAR-3) | GI50 (NCI-H226)
COC(=O)C1=C(O)c2ccc(Cl)cc2S(=O)(=O)N1C | > 100 µM (inactive) | > 100 µM (inactive) | > 100 µM (inactive) | > 100 µM (inactive) | 33.8 µM (inactive) | 59 µM (inactive) | 78 µM (inactive) | 32.1 µM (inactive) | > 100 µM (inactive) | > 100 µM (inactive) | 51.1 µM (inactive) | > 100 µM (inactive) | > 100 µM (inactive) | 77.6 µM (inactive) | 58.9 µM (inactive) | 83.4 µM (inactive) | 80.2 µM (inactive) | > 10 µM (inactive) |  | 
CCOc1cc(-c2nc3ccccn3c2/N=C/c2cc([N+](=O)[O-])cc([N+](=O)[O-])c2O)ccc1O | > 100 µM (inactive) | > 100 µM (inactive) | > 100 µM (inactive) | > 100 µM (inactive) | > 100 µM (inactive) | > 100 µM (inactive) | > 100 µM (inactive) | > 100 µM (inactive) | > 100 µM (inactive) | > 100 µM (inactive) | > 100 µM (inactive) | > 100 µM (inactive) | > 100 µM (inactive) | > 100 µM (inactive) | > 100 µM (inactive) | > 100 µM (inactive) | > 100 µM (inactive) | > 100 µM (inactive) | > 100 µM (inactive) | 
CC(=O)O[C@H]1C[C@@H](OC(C)=O)[C@@](C)(O)[C@@H]2[C@@H](OC(C)=O)[C@@]3(O)[C@H](/C=C(/CCl)[C@H]4O[C@H]4[C@@H](OC(C)=O)[C@@]12C)OC(=O)[C@@H]3C | > 25 µM (inactive) | > 25 µM (inactive) | > 25 µM (inactive) | > 25 µM (inactive) |  | > 25 µM (inactive) | > 25 µM (inactive) | > 25 µM (inactive) | > 25 µM (inactive) | 21.2 µM (inactive) | > 25 µM (inactive) | > 25 µM (inactive) | > 25 µM (inactive) | > 25 µM (inactive) | > 25 µM (inactive) | > 25 µM (inactive) | > 25 µM (inactive) | > 25 µM (inactive) | > 25 µM (inactive) | > 25 µM (inactive)
CC(=O)OC1(C)C=CC(=O)C=C1 | 23.4 µM (inactive) | 31.6 µM (inactive) | 57.3 µM (inactive) | 36.6 µM (inactive) | 27.9 µM (inactive) | 39 µM (inactive) | 12.9 µM (inactive) | 50.8 µM (inactive) | > 100 µM (inactive) | 32.6 µM (inactive) | 32.6 µM (inactive) | 24.2 µM (inactive) | 30.3 µM (inactive) |  | 27.5 µM (inactive) | 27.4 µM (inactive) | 60.4 µM (inactive) | 23.9 µM (inactive) | 51.8 µM (inactive) | 26.2 µM (inactive)
CC(=O)OC/C=C/[C@H](O[Si](C)(C)C(C)(C)C)[C@@H](O)/C=C/COC(C)=O | > 100 µM (inactive) | > 100 µM (inactive) | > 100 µM (inactive) | > 100 µM (inactive) |  | > 100 µM (inactive) | > 100 µM (inactive) | 23 µM (inactive) | > 100 µM (inactive) | 76.6 µM (inactive) | > 100 µM (inactive) | > 100 µM (inactive) | 23.7 µM (inactive) | > 100 µM (inactive) | > 100 µM (inactive) | > 100 µM (inactive) | > 100 µM (inactive) | > 100 µM (inactive) | > 100 µM (inactive) | > 100 µM (inactive)
CC(CC(=O)O)(CC(=O)O)c1ccccc1 | > 100 µM (inactive) | > 100 µM (inactive) | > 100 µM (inactive) | > 100 µM (inactive) | > 100 µM (inactive) | > 100 µM (inactive) | > 100 µM (inactive) | 50.2 µM (inactive) | > 100 µM (inactive) | > 100 µM (inactive) | > 100 µM (inactive) | > 100 µM (inactive) |  | > 100 µM (inactive) | > 100 µM (inactive) | > 100 µM (inactive) | > 100 µM (inactive) | > 100 µM (inactive) | > 100 µM (inactive) | > 100 µM (inactive)
CCOC(=O)c1cn(-c2ccccc2)c(=S)n2c1nc1ccccc12 | 43.4 µM (inactive) | 23.9 µM (inactive) | 41.8 µM (inactive) | 63.2 µM (inactive) |  | 13.9 µM (inactive) | 42.5 µM (inactive) | 18.3 µM (inactive) | 33.7 µM (inactive) | > 67.1 µM (inactive) | 38.6 µM (inactive) | > 63.7 µM (inactive) | 4.65 µM (inactive) |  | 45.7 µM (inactive) | 24.4 µM (inactive) | 52.6 µM (inactive) | 7.67 µM (inactive) | 52.2 µM (inactive) | 27.3 µM (inactive)
Oc1c(Cl)c(Cl)c(Cl)c(Cl)c1Cl [PENTACHLOROPHENOL] | 21 µM (inactive) | 19 µM (inactive) | 25.6 µM (inactive) | 21.4 µM (inactive) | 17.5 µM (inactive) | 18.6 µM (inactive) | 18.8 µM (inactive) | 26.4 µM (inactive) | 19.5 µM (inactive) | 17.9 µM (inactive) | 20.9 µM (inactive) | 13.3 µM (inactive) | 20.6 µM (inactive) |  | 21.8 µM (inactive) | 18.9 µM (inactive) | 24.5 µM (inactive) | 17 µM (inactive) | 18.7 µM (inactive) | 28.4 µM (inactive)
C=C1C(=O)O[C@H]2[C@H]1CC(=O)/C(C)=C/CC[C@@]1(C)O[C@@H]21 | 0.582 µM (active) | 1.64 µM (inactive) | 0.423 µM (active) | 6.5 µM (inactive) |  | 0.74 µM (active) | 2.04 µM (inactive) |  | 2.49 µM (inactive) | 0.354 µM (active) | 0.37 µM (active) | 1.05 µM (active) |  | 1.25 µM (inactive) | 1.67 µM (inactive) | 2.19 µM (inactive) | 0.324 µM (active) | 0.879 µM (active) | 0.224 µM (active) | 4.26 µM (inactive)
COc1c2c(c3c(c1OC)c(=O)c1ccccc1n3C)OCO2 | > 100 µM (inactive) | > 100 µM (inactive) | > 100 µM (inactive) | > 100 µM (inactive) | > 100 µM (inactive) | > 100 µM (inactive) | > 100 µM (inactive) | 81.5 µM (inactive) | > 100 µM (inactive) | > 100 µM (inactive) | > 100 µM (inactive) | > 100 µM (inactive) | > 100 µM (inactive) |  | > 100 µM (inactive) | > 100 µM (inactive) | > 100 µM (inactive) | > 100 µM (inactive) | > 100 µM (inactive) | > 100 µM (inactive)
N#Cc1c(O)c(C=O)c(=O)n2c1[nH]c1ccccc12 | > 100 µM (inactive) | > 100 µM (inactive) | > 100 µM (inactive) | > 100 µM (inactive) |  | > 100 µM (inactive) | > 100 µM (inactive) | > 100 µM (inactive) | > 100 µM (inactive) | > 100 µM (inactive) | > 100 µM (inactive) | > 100 µM (inactive) | > 100 µM (inactive) | > 100 µM (inactive) | > 100 µM (inactive) | > 100 µM (inactive) | > 100 µM (inactive) | > 100 µM (inactive) | > 100 µM (inactive) | > 100 µM (inactive)
N#CSC1CCCCNC1=O (stereo not given) | 14.7 µM (inactive) |  | 5.93 µM (inactive) | 11.1 µM (inactive) | 23.9 µM (inactive) | 2.78 µM (inactive) |  | 18.2 µM (inactive) | 14.1 µM (inactive) | 13.5 µM (inactive) | 16.7 µM (inactive) | 14.9 µM (inactive) | 2.48 µM (inactive) | 14.4 µM (inactive) | 7.62 µM (inactive) | 13.6 µM (inactive) |  | 15.1 µM (inactive) | 11.3 µM (inactive) | 12 µM (inactive)
CCCCCC(=O)OCC1(CO)C/C(=C/CC(C(C)C)C(C)C)C(=O)O1 (stereo not given) | 30.8 µM (inactive) | > 75 µM (inactive) | > 75 µM (inactive) | 59.6 µM (inactive) |  | 27 µM (inactive) | 17.8 µM (inactive) |  | 13.5 µM (inactive) | 10.6 µM (inactive) |  | > 75 µM (inactive) |  | 24.3 µM (inactive) | > 75 µM (inactive) | 63.5 µM (inactive) | 25.2 µM (inactive) | 17.2 µM (inactive) | 50 µM (inactive) | > 75 µM (inactive)
Cc1ccc(C(=O)NN=C(/N=N/c2cccc(C)c2)c2ccc(N(C)C)cc2)cc1 | > 100 µM (inactive) |  | > 100 µM (inactive) | 28.4 µM (inactive) | > 100 µM (inactive) | 51.8 µM (inactive) | > 100 µM (inactive) | > 100 µM (inactive) | > 100 µM (inactive) | > 100 µM (inactive) | > 100 µM (inactive) | > 100 µM (inactive) | > 100 µM (inactive) |  | > 100 µM (inactive) | > 100 µM (inactive) | > 100 µM (inactive) | > 100 µM (inactive) | > 100 µM (inactive) | > 100 µM (inactive)
CCC1OC2C(CC=C(C)C)=C3OC(C)(O)C(C)(CC)C(OC(C)=O)C3=C3OC(=O)C=C1C32 (stereo not given) | 37.7 µM (inactive) | 36.7 µM (inactive) | 21.5 µM (inactive) | 39.6 µM (inactive) | 75 µM (inactive) | 59.4 µM (inactive) | 26.4 µM (inactive) | 32.8 µM (inactive) | 23.1 µM (inactive) | 21.3 µM (inactive) | 30.5 µM (inactive) | 19.8 µM (inactive) | 22.7 µM (inactive) | 21.4 µM (inactive) | 27.7 µM (inactive) | 38.8 µM (inactive) | 53.7 µM (inactive) | 22.6 µM (inactive) | 37.8 µM (inactive) | 
